# Measurements reported in US20170253607A1, “LONG-ACTING HIV PROTEASE INHIBITOR” (Shionogi & Co., Ltd., priority 2014, published 2017).
# Legend:
# [1] = Evaluation of total body clearance (CLtot), intravenous administration; type: in vivo, Sprague-Dawley (SD); conditions: rat (SD), intravenous administration 0.5-10 mg/kg; CLtot = dose/AUC
# Protocol: Dose: Intravenous administration with designated doses was selected. (Doses were changed depending on compounds.) • 0.5-10 mg/kg (n=2-3) Preparation of dosing formulation: The dosing solution was prepared by dissolving in an adequate solvent. Administration method: The dosing solution was injected into the tail vein by a syringe with a needle Blood sampling: The blood was collected at the scheduled time and obtained the plasma. Plasma concentrations of the compound were measured by LC/MS/MS. Statistical analysis: Area under the plasma concentration-time curve (AUC) of the compound was calculated by pharmacokinetic analysis software, WinNonlin™ and CLtot was calculated by dividing the dose by AUC.
# HIV-1 PR = HIV-1 PR (Human immunodeficiency virus type 1 group M subtype B, UniProt P04585); test: HIV-protease inhibitory activity assay (FRET peptide substrate); type: biochemical; conditions: Test Example 1
# How it was run: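 Fluorescence recovery at ex 485/em 535 nm reports cleavage of a quenched FRET peptide (2 μmol/L final) by 0.83 ng enzyme over 60 minutes at room temperature. Buffer was NaAc pH 4.8 with NaCl, EDTA, DTT and Tween 20. IC50 values came from four-parameter logistic regression of % inhibition.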
Structure (SMILES),rat_CLt [1] [mL/min/kg],IC50 (HIV-1 PR) [nM]
COc1ccc(S(=O)(=O)N(CC(C)C)CC(O)C(Cc2ccc(NCc3ccc(-c4ccccc4-c4sc5c(c4C(=O)O)CC(C)(C)CC5)cc3)cc2)NC(=O)OC2COC3(C)OCCC23)cc1 (stereo not drawn) [Compound I-530],1.57,8.31
COc1ccc(S(=O)(=O)N(CC(C)C)CC(O)C(Cc2ccc(N3CCC(Cc4ccccc4-c4sc5c(c4C(=O)O)CC(C)(C)CC5)CC3)cc2)NC(=O)OC2COC3(C)OCCC23)cc1 (stereo not drawn) [Compound I-666],0.668,4.7
CC1(C)CCc2sc(-c3ccccc3CNc3ccc(CC(NC(=O)OC4COC5(C)OCCC45)C(O)CN(CC4CCCC4)S(=O)(=O)c4ccc5c(c4)OCO5)cc3)c(C(=O)O)c2C1 (stereo not drawn) [Compound I-484],1.58,2.43
COc1ccc(S(=O)(=O)N(CC(C)C)CC(O)C(Cc2ccc(N3CCC(Oc4cc(C(F)(F)F)ccc4-c4sc5c(c4C(=O)O)CC(C)(C)CC5)C3)cc2)NC(=O)OC2COC3(C)OCCC23)cc1 (stereo not drawn) [Compound I-579],1.66,4.38
COc1ccc(S(=O)(=O)N(CC(C)C)CC(O)C(Cc2ccc(NCc3cc4ccccc4cc3-c3sc4c(c3C(=O)O)CC(C)(C)CC4)cc2)NC(=O)OC2COC3(C)OCCC23)cc1 (stereo not drawn) [Compound I-581],0.204,4.02
CC1(C)CCc2sc(NC(=O)c3ccccc3CNc3ccc(CC(NC(=O)OC4COC5OCCC45)C(O)CN(CC4CCC4)S(=O)(=O)c4ccc5c(c4)OCO5)cc3)c(C(=O)O)c2C1 (stereo not drawn) [Compound I-861],0.0804,2.8
COc1ccc(S(=O)(=O)N(CC(C)C)CC(O)C(Cc2ccc(N(C)Cc3ccccc3-n3nc4c(c3C(=O)O)CC3(CCCC3)CC4)cc2)NC(=O)OC2COC3(C)OCCC23)cc1 (stereo not drawn) [Compound I-466],1.75,4.28
COc1ccc(S(=O)(=O)N(CC(C)C)CC(O)C(Cc2ccc(NCC3=C(C(=O)Nc4sc5c(c4C(=O)O)CC(C)(C)CC5)CCC3)cc2)NC(=O)OC2COC3(C)OCCC23)cc1 (stereo not drawn) [Compound I-589],0.311,3.48
CN(Cc1ccccc1C(=O)Nc1sc2c(c1C(=O)O)CC(C)(C)CC2)c1ccc(CC(NC(=O)OC2COC3(C)OCCC23)C(O)CN(CC2CCCC2)S(=O)(=O)c2ccc3ncsc3c2)cc1 (stereo not drawn) [Compound I-636],0.372,4.37
COc1ccc(S(=O)(=O)N(CC(C)C)CC(O)C(Cc2ccc(NCc3cc(C4=CCCCC4)ccc3-c3sc4c(c3C(=O)O)CC(C)(C)CC4)cc2)NC(=O)OC2COC3(C)OCCC23)cc1 (stereo not drawn) [Compound I-727],0.0528,3.38
COc1ccc(S(=O)(=O)N(CC(C)C)CC(O)C(Cc2ccc(NC(C)c3ccccc3-c3sc4c(c3C(=O)O)CC(C)(C)CC4)cc2)NC(=O)OC2COC3(C)OCCC23)cc1 (stereo not drawn) [Compound I-603],5.83,3.65
COc1ccc(S(=O)(=O)N(CC(C)C)CC(O)C(Cc2ccc(NCc3cc4ccccc4c(-c4sc5c(c4C(=O)O)CC(C)(C)CC5)n3)cc2)NC(=O)OC2COC3(C)OCCC23)cc1 (stereo not drawn) [Compound I-453],0.593,2.63
COc1ccc(S(=O)(=O)N(CC(C)C)CC(O)C(Cc2ccc(NCc3cc(-n4ccccc4=O)ccc3-c3sc4c(c3C(=O)O)CC(C)(C)CC4)cc2)NC(=O)OC2COC3(C)OCCC23)cc1 (stereo not drawn) [Compound I-664],1.5,1.86
COc1ccc(S(=O)(=O)N(CC(C)C)CC(O)C(Cc2ccc(NCc3cc(C)ccc3-c3sc4c(c3C(=O)O)CC(C)(C)CC4)cc2)NC(=O)OC2COC3(C)OCCC23)cc1 (stereo not drawn) [Compound I-545],1.15,1.85
COc1ccc(S(=O)(=O)N(CC(C)C)CC(O)C(Cc2ccc(N3CC(Oc4ccccc4C(=O)Nc4sc5c(c4C(=O)O)CC(C)(C)CC5)C3)cc2)NC(=O)OC2COC3(C)OCCC23)cc1 (stereo not drawn) [Compound I-575],0.267,8.32
COc1ccc(S(=O)(=O)N(CC(C)C)CC(O)C(Cc2ccc(NCc3nc(N4CCCC4)sc3-c3sc4c(c3C(=O)O)CC(C)(C)CC4)cc2)NC(=O)OC2COC3(C)OCCC23)cc1 (stereo not drawn) [Compound I-607],0.797,1.8
COc1ccc(S(=O)(=O)N(CC(C)C)CC(O)C(Cc2ccc(NCc3cc(N4CCC4)ccc3-c3sc4c(c3C(=O)O)CC(C)(C)CC4)cc2)NC(=O)OC2COC3(C)OCCC23)cc1 (stereo not drawn) [Compound I-693],0.247,3.3
CC1(C)CCc2sc(NC(=O)c3ccccc3CNc3ccc(CC(NC(=O)OC4COC5(C)OCCC45)C(O)CN(CC4CCC4)S(=O)(=O)c4ccc5ncsc5c4)cc3)c(C(=O)O)c2C1 (stereo not drawn) [Compound I-617],0.098,3.13

Structure (SMILES),rat_CLt [1] [mL/min/kg],IC50 (HIV-1 PR) [nM]
COc1ccc(S(=O)(=O)N(CC(C)C)CC(O)C(Cc2ccc(NCc3cc(N(C)C)ccc3-c3sc4c(c3C(=O)O)CC(C)(C)CC4)cc2)NC(=O)OC2COC3(C)OCCC23)cc1 (stereo not drawn) [Compound I-455],0.236,2.38
COc1ccc(S(=O)(=O)N(CC(C)C)CC(O)C(Cc2ccc(NCc3cc(OC)c(OC)cc3-c3sc4c(c3C(=O)O)CC(C)(C)CC4)cc2)NC(=O)OC2COC3(C)OCCC23)cc1 (stereo not drawn) [Compound I-560],4.5,1.65
COc1ccc(S(=O)(=O)N(CC(C)C)CC(O)C(Cc2ccc(NCc3cc(N4CCOCC4)ccc3-c3sc4c(c3C(=O)O)CC(C)(C)CC4)cc2)NC(=O)OC2COC3(C)OCCC23)cc1 (stereo not drawn) [Compound I-679],1.65,2.82
COc1ccc(S(=O)(=O)N(CC(C)C)CC(O)C(Cc2ccc(N(C)Cc3ccc(-c4sc5c(c4C(=O)O)CC(C)(C)CC5)cc3)cc2)NC(=O)OC2COC3(C)OCCC23)cc1 (stereo not drawn) [Compound I-450],3.7,2.68
COc1ccc(S(=O)(=O)N(CC(C)C)CC(O)C(Cc2ccc(N(CCCc3sc4c(c3C(=O)O)CC(C)(C)CC4)Cc3ccccc3)cc2)NC(=O)OC2COC3(C)OCCC23)cc1 (stereo not drawn) [Compound I-371],4.69,10.5
CC1(C)CCc2sc(-c3ccccc3CNc3ccc(CC(NC(=O)OC4COC5(C)OCCC45)C(O)CN(CC4CCCC4)S(=O)(=O)c4ccc5ncsc5c4)cc3)c(C(=O)O)c2C1 (stereo not drawn) [Compound I-513],3.23,1.76
COc1ccc(S(=O)(=O)N(CC(C)C)CC(O)C(Cc2ccc(N(C)Cc3cc(N4CCCC4)ccc3-c3sc4c(c3C(=O)O)CC(C)(C)CC4)cc2)NC(=O)OC2COC3(C)OCCC23)cc1 (stereo not drawn) [Compound I-539],0.156,2.91
CC(C)CN(CC(O)C(Cc1ccc(NCc2ccccc2-c2sc3c(c2C(=O)O)CC(C)(C)CC3)cc1)NC(=O)OC1COC2(C)OCCC12)S(=O)(=O)c1ccc2ncsc2c1 (stereo not drawn) [Compound I-467],2.36,2.42
COc1ccc(S(=O)(=O)N(CC(C)C)CC(O)C(Cc2ccc(NCC3CCCC3c3sc4c(c3C(=O)O)CC(C)(C)CC4)cc2)NC(=O)OC2COC3(C)OCCC23)cc1 (stereo not drawn) [Compound I-410],1.07,1.99
COc1ccc(S(=O)(=O)N(CC(C)C)CC(O)C(Cc2ccc(N(C)Cc3cccc(C(F)(F)F)c3-c3sc4c(c3C(=O)O)CC(C)(C)CC4)cc2)NC(=O)OC2COC3(C)OCCC23)cc1 (stereo not drawn) [Compound I-537],0.328,5.5
COc1ccc(S(=O)(=O)N(CC(O)C(Cc2ccc(NCc3ccccc3-c3sc4c(c3C(=O)O)CC(C)(C)CC4)cc2)NC(=O)OC2COC3(C)OCCC23)CC(C)(C)C)cc1 (stereo not drawn) [Compound I-473],1.22,2.71
COc1ccc(S(=O)(=O)N(CC(C)C)CC(O)C(Cc2ccc(NCc3cocc3-c3sc4c(c3C(=O)O)CC(C)(C)CC4)cc2)NC(=O)OC2COC3(C)OCCC23)cc1 (stereo not drawn) [Compound I-528],4.05,2.36
COc1ccc(S(=O)(=O)N(CC(C)C)CC(O)C(Cc2ccc(NCc3cc([N+](=O)[O-])ccc3-c3sc4c(c3C(=O)O)CC(C)(C)CC4)cc2)NC(=O)OC2COC3(C)OCCC23)cc1 (stereo not drawn) [Compound I-567],2.81,3.12
COc1ccc(S(=O)(=O)N(CC(C)C)CC(O)C(Cc2ccc(NCc3ccc(C(F)(F)F)cc3-c3sc4c(c3C(=O)O)CC(C)(C)CC4)cc2)NC(=O)OC2COC3(C)OCCC23)cc1 (stereo not drawn) [Compound I-526],0.632,6.47
COc1ccc(S(=O)(=O)N(CCC(C)C)CC(O)C(Cc2ccc(NCc3ccccc3-c3sc4c(c3C(=O)O)CC(C)(C)CC4)cc2)NC(=O)OC2COC3(C)OCCC23)cc1 (stereo not drawn) [Compound I-475],2.28,2.42
COc1ccc(S(=O)(=O)N(CC(C)C)CC(O)C(Cc2ccc(NCc3cc(N4CCCCC4)ccc3-c3sc4c(c3C(=O)O)CC(C)(C)CC4)cc2)NC(=O)OC2COC3(C)OCCC23)cc1 (stereo not drawn) [Compound I-689],0.385,2.01
COc1ccc(S(=O)(=O)N(CC(C)C)CC(O)C(Cc2ccc(NCc3cc(OC)c(OC)cc3C(=O)Nc3sc4c(c3C(=O)O)CC(C)(C)CC4)cc2)NC(=O)OC2COC3(C)OCCC23)cc1 (stereo not drawn) [Compound I-541],0.195,2.34
COc1ccc(S(=O)(=O)N(CC(C)C)CC(O)C(Cc2ccc(NCc3cnc4sccc4c3-c3sc4c(c3C(=O)O)CC(C)(C)CC4)cc2)NC(=O)OC2COC3(C)OCCC23)cc1 (stereo not drawn) [Compound I-648],0.783,2.31
